# Patent US5169780A, “Enantiomeric enrichment and stereoselective synthesis of chiral amines” (Celgene Corporation, priority 1990, dated 1992)
# Assays:
# Bacillus megaterium = assay: induction of omega-amino acid transaminase production by addition of an amine to cultures; type: cell-based; details: 2 mM amine inducer, 30 to 40 hours; for Specific Activity (units/mg) Acetate: 40 mM acetate as carbon source; for Specific Activity (units/mg) Succinate: 40 mM succinate as carbon source
# Description: (§1) Enzyme Activity: Enzyme activity is expressed herein as units/mg. A unit of enzyme activity is defined as that which produces 1 micromole of ketone per minute. For uniformity, this is measured as micromoles of 1-phenylbutan-3-one formed from R,S-1-phenyl-3-aminobutane. The following standardized assay was utilized to measure the activity of the omega-amino acid transaminases set forth in the examples which follow.
# (§2) A known volume of the enzyme preparation to be tested is incubated at 37° C. and pH 7 in a solution having the following composition:
# (§3) A sample is removed and 20% by volume of 12% aqueous trichloroacetic acid are added. Precipitated protein is removed by centrifugation and the concentration of 1-phenylbutan-3-one in the supernatant is determined by liquid chromatography on a 100×8 mm 4 micron Novopak phenyl column eluting with 40% isopropanol and 0.09% phosphoric acid in water. Under these conditions, 1-phenylbutan-3-one elutes at 5.3 minutes.
# Enzyme Recovery: Unless otherwise indicated, cells from culture are centrifuged for 10 minutes at 10,000 G, resuspended in 10 mM of phosphate buffer at pH 7 and 0.5 mM of pyridoxal phosphate, and ruptured by two passes through a chilled French press operating at 15,000 psi. Cell debris is removed by centrifugation for one hour at 10,000 G and the enzyme-containing supernatant collected.
# The following procedure exemplifies the growth of microorganisms using ammonium as the sole nitrogen source and then inducing omega-amino acid transaminase production by the addition of an amine.
# Bacillus megaterium was grown in 1 L cultures in the standard salt medium supplemented with 40 mM of the indicated carbon source, 5 mM of ammonium chloride, 80 mM of phosphate buffer, and 2 mM of the amine inducer indicated below. After 30 to 40 hours, the enzyme was collected and assayed as described above.
# [1] = system: omega-amino acid transaminase; assay: relative rates of conversion of different chiral amines by soluble enzymatic preparations; type: biochemical; details: for conversion to the nonchiral ketone by the transaminase: racemate subjected to the enzyme
# Description: as §1, §2, §3
# The following procedure exemplifies the relative rates of conversion, determined directly or calculated from kinetic data, of different chiral amines by soluble enzymatic preparations utilizing the assay described above but substituting the indicated chiral amine.
# [2] = system: omega-amino acid transaminase; assay: relative rates of conversion of 1-phenyl-3-aminobutane with different amino acceptors in place of pyruvate; type: biochemical; details: for Relative Rate of Conversion: substrate 1-phenyl-3-aminobutane
# Description: as §1, §2, §3
# The following procedure exemplifies the relative rates of conversion with 1-phenyl-3-aminobutane employing different amino acceptors in place of pyruvate in the assay described above.
# [3] = system: omega-amino acid transaminase; assay: standardized omega-amino acid transaminase activity assay (1-phenylbutan-3-one formed from R,S-1-phenyl-3-aminobutane), B. megaterium enzyme; type: biochemical, Bacillus megaterium
# Description: as §1, §2, §3
# (§4) Enzyme extracts from P. putida, B. megaterium, and P. aeruginosa obtained as above were assayed as above at pH 9 in 50 mM of Tris/HCl using 30 mM of R,S-1-phenyl-3-aminobutane, with and without 100 mM of sodium pyruvate. The following relative rates of conversion were observed.
# (§5) The transaminase nature of the enzymatic action is apparent from the effect of "suicide inactivators" known to be specific for transaminases {see, for example, Burnett et al., J. Bio. Chem., 225, 428-432 (1980)}, the inactivator (0.5 mM) being preincubated with the assay medium before addition of R,S-1-phenyl-3-aminobutane.
# (§6) The stereoselectivity of the omega-amino acid transaminase can be seen from the corresponding assay utilizing 15 mM of R-1-phenyl-3-aminobutane (with pyruvate).
# [4] = system: omega-amino acid transaminase; assay: standardized omega-amino acid transaminase activity assay, P. putida enzyme; type: biochemical, Pseudomonas putida
# Description: as §1, §2, §3
# Pseudomonas putida ATCC 39213 was cultured as described in Example 1 and an enzyme extract then was obtained as therein described. The specific activity of the omega-amino acid transaminase was 0.045 units/mg.
# as §4, §5, §6
# [5] = molecular target: T1, omega-amino acid transaminase (Pseudomonas aeruginosa, UniProt Q9I700); assay: standardized omega-amino acid transaminase activity assay, P. aeruginosa enzyme; type: biochemical
# T1 construct: cell extracts containing the omega-amino acid transaminase then are obtained as therein described; host or cells: Pseudomonas aeruginosa ATCC 15692, cell extract
# T1 sequence (Q9I700 1-448): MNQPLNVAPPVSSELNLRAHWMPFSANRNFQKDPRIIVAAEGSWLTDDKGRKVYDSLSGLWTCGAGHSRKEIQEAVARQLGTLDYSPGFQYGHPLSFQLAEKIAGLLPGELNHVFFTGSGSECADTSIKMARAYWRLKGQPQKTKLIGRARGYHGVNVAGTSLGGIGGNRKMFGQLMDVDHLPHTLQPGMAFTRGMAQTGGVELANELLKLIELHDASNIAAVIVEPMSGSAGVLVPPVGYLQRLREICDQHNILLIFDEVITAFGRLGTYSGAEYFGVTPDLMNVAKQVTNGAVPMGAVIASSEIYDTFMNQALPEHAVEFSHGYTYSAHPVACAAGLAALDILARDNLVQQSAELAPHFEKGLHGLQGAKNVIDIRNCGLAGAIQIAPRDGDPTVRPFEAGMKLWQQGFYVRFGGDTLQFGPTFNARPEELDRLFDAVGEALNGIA
# [6] = system: omega-amino acid transaminase; assay: rate of immobilized enzyme reaction with added benzylacetone; type: biochemical, Bacillus megaterium; details: 80 mM R,S-1-phenyl-3-aminobutane, 60 mM glyoxylate, pH 6.5
# Description: Immobilization: A 47 mm diameter […] (FMC Corp.) support matrix (0.4 g) was loaded into a housing (Millipore Sweenex) fitted with inlet and outlet tubing, a peristaltic pump, and reservoir. The matrix was washed sequentially, at ambient temperatures and a rate of 3 ml/min., with (1) 200 ml of 50 mM of phosphate buffer (pH 7) containing 0.5 mM pyridoxal phosphate over a period of 20 min., (2) 11 ml of a 4.6 mg/ml solution of enzyme obtained in the manner of Example 1 for 120 min., (3) 150 ml of 0.3 M sodium chloride in 50 mM of phosphate buffer (pH 7) containing 0.5 mM pyridoxal phosphate for 30 minutes, and (4) 200 ml of 50 mM of phosphate buffer (pH 7) containing 0.5 mM pyridoxal phosphate over a period of 20 min.
# A solution of omega-amino acid transaminase was immobilized onto a matrix according to the methods in Example 16. Four independent 200 milliliter substrate solutions containing 80 mM of R,S-1-phenyl-3-aminobutane, 60 mM glyoxylate, 0.1 mM pyridoxal phospate, and 50 mM potassium phosphate (pH 6.5) were prepared. Benzylacetone in concentrations of 0.50 mM, 0.85 mM, 1.45 mM, and 2.55 mM, respectively, were added to the four substrate solutions and these were pumped through the immobilized enzyme matrix. The rate of the enzyme catalyzed reaction was measured in micromoles/minute.
# [7] = inactivator 0.5 mM preincubated before addition of R,S-1-phenyl-3-aminobutane, None = 100
# [8] = general statement of the description
# [9] = stereoselectivity: 15 mM R-1-phenyl-3-aminobutane versus R,S-, with pyruvate
smiles,measurement,setting,value
"CC(N)c1ccccc1 (racemic) [R,S-1-phenyl-1-aminoethane]",Specific Activity (units/mg) Acetate,Bacillus megaterium,0.39 units/mg
same,Specific Activity (units/mg) Succinate,Bacillus megaterium,0.27 units/mg
same,Relative Rate of Conversion R-enantiomer,"[1]; amine (R,S) 10 mM",0
same,Relative Rate of Conversion S-enantiomer,"[1]; amine (R,S) 10 mM",100
CC(N)CCCc1cccnc1 (stereo not drawn) [5-(3-pyridyl)-2-aminopentane],Relative Rate of Conversion R-enantiomer,"[1]; amine (R,S) 5 mM",0
same,Relative Rate of Conversion S-enantiomer,"[1]; amine (R,S) 5 mM",100
O=Cc1ccccc1 [benzaldehyde],Relative Rate of Conversion,[2]; amino acceptor 25 mM,17
CCC(C)=O [butan-2-one],Relative Rate of Conversion,[2]; amino acceptor 20 mM,20
CCCC(C)=O [2-pentanone],Relative Rate of Conversion,[2]; amino acceptor 25 mM,33
CC(N)c1ccc(Br)cc1 (stereo not drawn) [1-(4-bromophenyl)-1-aminoethane],Relative Rate of Conversion R-enantiomer,"[1]; amine (R,S) 30 mM",0
same,Relative Rate of Conversion S-enantiomer,"[1]; amine (R,S) 30 mM",100
"NC1C=CC=C(C(=O)O)C1 (stereo not drawn) [Gabaculine, reference compound]",Relative Rate of Conversion B. megaterium,[3]; [7],13
same,Relative Rate of Conversion P. putida,[4]; [7],0
CCCCCCC=O [heptaldehyde],Relative Rate of Conversion,[2]; amino acceptor 25 mM,80
CC(N)c1cccc2ccccc12 (stereo not drawn) [1-(α-naphthyl)1-aminoethane],Relative Rate of Conversion R-enantiomer,"[1]; amine (R,S) 10 mM",0
same,Relative Rate of Conversion S-enantiomer,"[1]; amine (R,S) 10 mM",100
CCCCCCC(C)N (stereo not drawn) [2-aminooctane],Relative Rate of Conversion R-enantiomer,"[1]; amine (R,S) 5 mM",0
same,Relative Rate of Conversion S-enantiomer,"[1]; amine (R,S) 5 mM",100
CC(=O)c1ccccc1 [acetophenone],relative rates,"[2]; as amino acceptor, concentration not given",≤ 10
C[C@@H](N)c1ccc(Br)cc1 [R-1-amino-1-(4-bromophenyl)ethane],conversion to the nonchiral ketone by the transaminase,[1]; [8],unchanged
O=C1CCCC1 [cyclopentanone],Relative Rate of Conversion,[2]; amino acceptor 25 mM,12
CCCC=O [butyraldehyde],Relative Rate of Conversion,[2]; amino acceptor 20 mM,90
CC=O [acetaldehyde],Relative Rate of Conversion,[2]; amino acceptor 20 mM,50
CCC(N)c1ccccc1 (stereo not drawn) [1-phenyl-1-aminopropane],Relative Rate of Conversion R-enantiomer,"[1]; amine (R,S) 20 mM",11
same,Relative Rate of Conversion S-enantiomer,"[1]; amine (R,S) 20 mM",100
NC(CO)c1ccccc1 (stereo not drawn) [phenylglycinol],Relative Rate of Conversion R-enantiomer,"[1]; amine (R,S) 10 mM",100
same,Relative Rate of Conversion S-enantiomer,"[1]; amine (R,S) 10 mM",0
NCCc1ccc(O)cc1 [tyramine],Specific Activity (units/mg) Acetate,Bacillus megaterium,0.24 units/mg
CCC=O [propionaldehyde],Relative Rate of Conversion,[2]; amino acceptor 20 mM,100
CC(N)c1ccc([N+](=O)[O-])cc1 (stereo not drawn) [1-(4-nitrophenyl)-1-aminoethane],Relative Rate of Conversion R-enantiomer,"[1]; amine (R,S) 5 mM",0
same,Relative Rate of Conversion S-enantiomer,"[1]; amine (R,S) 5 mM",100
"NO [Hydroxylamine, reference compound]",Relative Rate of Conversion P. aeruginosa,[5]; [7],0
same,Relative Rate of Conversion B. megaterium,[3]; [7],10
same,Relative Rate of Conversion P. putida,[4]; [7],3
CC(N)Cc1ccccc1 (stereo not drawn) [3-phenyl-2-aminopropane],Relative Rate of Conversion R-enantiomer,"[1]; amine (R,S) 10 mM",100
same,Relative Rate of Conversion S-enantiomer,"[1]; amine (R,S) 10 mM",0
same,Relative Rate of Conversion R-enantiomer,"[1]; amine (R,S) 15 mM",7
same,Relative Rate of Conversion S-enantiomer,"[1]; amine (R,S) 15 mM",100
O=CC(=O)O [glyoxalate],Relative Rate of Conversion,[2]; amino acceptor 20 mM,50
CC[C@@H](C)N [R-2-aminobutane],Specific Activity (units/mg) Acetate,Bacillus megaterium,0.13 units/mg
same,Specific Activity (units/mg) Succinate,Bacillus megaterium,0.06 units/mg
CC(=O)CCc1ccccc1 [benzylacetone],ENZYME ACTIVITY,[6]; benzylacetone 0.50 mM,11.2 µM/min
same,ENZYME ACTIVITY,[6]; benzylacetone 0.85 mM,9.5 µM/min
same,ENZYME ACTIVITY,[6]; benzylacetone 1.45 mM,8.1 µM/min
same,ENZYME ACTIVITY,[6]; benzylacetone 2.55 mM,6.1 µM/min
"CC(N)CCc1ccccc1 (racemic) [R,S-1-phenyl-3-aminobutane]",Specific Activity (units/mg) Acetate,Bacillus megaterium,0.33 units/mg
same,Specific Activity (units/mg) Gluconate,Bacillus megaterium; 40 mM gluconate as carbon source,0.26 units/mg
same,Specific Activity (units/mg) Glucose,Bacillus megaterium; 40 mM glucose as carbon source,0.62 units/mg
same,Specific Activity (units/mg) Succinate,Bacillus megaterium,0.28 units/mg
same,Relative Rate of Conversion R-enantiomer,"[1]; amine (R,S) 30 mM",5
same,Relative Rate of Conversion S-enantiomer,"[1]; amine (R,S) 30 mM",100
same,Relative Rate of Conversion P. aeruginosa,[5]; [9],100
same,Relative Rate of Conversion B. megaterium,[3]; [9],100
same,Relative Rate of Conversion P. putida,[4]; [9],100
C[C@@H](N)c1ccccc1 [R-1-phenyl-1-aminoethane],Specific Activity (units/mg) Acetate,Bacillus megaterium,0.36 units/mg
same,Specific Activity (units/mg) Succinate,Bacillus megaterium,0.27 units/mg
same,conversion to the nonchiral ketone by the transaminase,[1]; [8],unchanged
"CCC(C)N (racemic) [R,S-2-aminobutane]",Specific Activity (units/mg) Acetate,Bacillus megaterium,0.14 units/mg
same,Specific Activity (units/mg) Succinate,Bacillus megaterium,0.13 units/mg
C[C@@H](N)CCc1ccccc1 [R-1-phenyl-3-aminobutane],Specific Activity (units/mg) Acetate,Bacillus megaterium,0.26 units/mg
same,Specific Activity (units/mg) Succinate,Bacillus megaterium,0.21 units/mg
same,conversion to 1-phenylbutan-3-one as a factor of that of the S-form,[1]; [8],≤ 0.05
same,Relative Rate of Conversion P. aeruginosa,[5]; [9],4
same,Relative Rate of Conversion B. megaterium,[3]; [9],15
same,Relative Rate of Conversion P. putida,[4]; [9],3
O=C1CCCCC1 [cyclohexanone],Relative Rate of Conversion,[2]; amino acceptor 25 mM,23
